Values of other authors in patent US20160279133A1 (Farmalider, S.A., priority 2015, published 2016).
Where a name gives a salt, the structure may show the parent alone.

Tests used:
male sexual dysfunction = settings: administered orally

Row | solubility in water | Structure (SMILES) | efficacy in the treatment of male sexual dysfunction (male sexual dysfunction)
1 | relatively insoluble | CCCc1nn(C)c2c(=O)[nH]c(-c3cc(S(=O)(=O)N4CCN(C)CC4)ccc3OCC)nc12 [Sildenafil citrate] | 
2 |  | CCCc1nn(C)c2c(=O)[nH]c(-c3cc(S(=O)(=O)N4CCN(C)CC4)ccc3OCC)nc12 [Sildenafil, 5-[2-ethoxy-5-(4-methylpiperazin-1-yl-sulfonyl)phenyl]-1-methyl-3-n-propyl-1,6-dihydro-7H-pyrazolo[4,3-d]pyrimidin-7-one] | effective treatment
